Experimental data reported in patent publication US20250275940A1, “PTEROSTILBENE AND SILIBININ FOR PREVENTING, AMELIORATING OR REDUCING RADIATION-INDUCED DISEASES” (UNIVERSITAT DE VALÈNCIA, priority 2021, published 2025).
Read-outs that look alike come from different tables or passages of the source.

Columns and labels:
[1] = PT, SIL and NAD+ levels in circulating blood; conditions: treated and irradiated mice, FIG. 10A
Description: Briefly, samples were analyzed through HPLC (Ultimate 3000, Thermo Fisher Scientific) and MS/MS (Waters TQ detector triple quadrupole) systems on a Hypurity™ C18 column (50×4.6 mm) using an injection volume of 5 μL. The mobile phases consisted of water (A) and acetonitrile (B). […] MS/MS data acquisition was performed under negative electrospray ionization mode. […] The fragmentary voltage was 150 V, and the collision energy 15 eV. Tissue sample preparation was as described for determination of PTER levels (above).
Whole-blood samples (0.5 ml) were collected in sodium citrate tubes at 4° C. Then a whole-blood aliquot of 0.1 ml was transferred to a cryovial containing 0.9 ml of 0.5 M ice-cold perchloric acid to lyse all blood cells. Samples were centrifuged at 10,000 g×10 min (4° C.). Supernatants were stored at −80° C. until analyzed.

[2] = tested on: Swiss albino mice subjected to whole-body γ irradiation; test: Survival of mice subjected to whole-body γ irradiation (LD50/30); type: in vivo; conditions: 6 days after γ radiation (LD50/30), compounds administered orally, FIG. 2A
Excerpt: Swiss albino mice (male, 9-10 weeks old, 30-32 g) were obtained from Charles River Laboratories (Wilmington, MA). This strain is among the most common used in radiation studies (Williams 2010). Mice were fed with a nutritionally complete diet (standard diet, SD) before irradiation. This was A03 from Panlab (Barcelona, Spain), which has 3,200 kcal/kg and the following nutritional composition: crude protein, 23.5%; crude fat, 4.3%; crude fiber, 3.7%; and carbohydrates, 51.1%; vitamins and minerals were provided as in the NIH-7 open formula for rat and mouse. This diet meets the dietary allowances recommended for adult mice by the American Institute of Nutrition. The animals were fed ad libitum and kept in individual metabolic cages, in which body weight and food ingestion were monitored daily. The animal room was maintained at 22° C. on a 12 h light/12 h dark cycle. Ad libitum intake of drinking water was also allowed. Care of irradiated mice followed the recommendation of the Robert Wood Johnson Medical School (Piscataway, NJ) for mouse total body irradiation (policy 15), which includes: a) use of antibiotics in the drinking water (134 mg ampicillin/kg/day, 40 mg baytril/kg/day, and 220/42 mg sulfamethoxazole/trimethoprim/kg/day), b) making drinking water readily available, c) Napa nectar Systems Engineering Lab Group Inc., Napa, CA) provided on the bottom of the cage during the first 14 days and replaced daily, d) provision of softened food served in a small Petri dish on the cage floor, e) completely sterile environment (cage, food, and water) to avoid potential immunosuppression-associated infections. A free-standing wheel inside the cage was also included to facilitate the physical exercise of the animals. All experiments were started at 10.00 h to minimize possible circadian variations. Procedures involving animals were in compliance with international laws and policies (EEC Directive 86/609, OJ L 358. 1, Dec. 12, 1987; and NIH Guide for the Care and Use of Laboratory Animals, NIH Publ. No. 85-23, 1985). Mice were subjected to g-radiation (^137Cs) (total body irradiation, TBI) in a BIOBEAM 8000 (Gamma-Service Medical GmbH, Leipzig, Germany). Single fraction radiotherapy, at total doses ranging from approx. 5.0 to 10.0 Gy, was administered at a rate of approx. […]. The irradiation distance from the source was limited to 12 cm. Radiation dosimetry was controlled using alanine dosimeters from Bruker (Billerica, MA) with dosimetry variation of +/−0.09 Gy. […] NR (nicotinamide riboside, 3-aminocarbonyl-1-b-D-ribofuranosyl-pyridinium, Elysium Health, Inc., New York, NY) was dissolved in vaccination-grade water, and the pH of the solution neutralized (pH 7.0) before oral administration (185 mg/kg×day, Obrador 2020). FSL-1 (InvivoGen, San Diego, CA) was resuspended in sterile vaccination-grade water, and administered IP (0.25 mg/kg×day, the volume administered was of […] depending on the weight of the mouse, as recommended by Kurkjian 2017). Pharmaceutical grade amifostine (Ethyol) was obtained from Cumberland Pharmaceuticals (Nashville, TN) as 500 mg sterile lyophilized powder vial, and reconstituted with physiological saline prior to use.
First, the effects of γ radiation and mice survival were studied. […] Mice received whole-body γ radiation (one single dose; ^137Cs, 0.5-0.6 Gy/min; Biobeam 8000, GSM GmbH). One Gy=absorption of 1 J of energy/kg of matter.
Next, the thirty-days survival of mice treated with γ rays (LD50/30) and pterostilbene (PT) was analysed (FIG. 1B).

[3] = background statement; cited from earlier work
[4] = tested on: Swiss albino mice subjected to whole-body γ irradiation; test: Survival of mice subjected to whole-body γ irradiation (LD50/30); type: in vivo; conditions: dose of 100 mg/kg, orally once per day, 5 days before and 2 days after γ irradiation (7.2 Gy), FIG. 1B
[5] = Plasma and extravascular levels of pterostilbene after oral administration; type: in vivo; conditions: mice, 200 mg Pter/kg b.w. oral
Description: Plasma and extravascular levels of pterostilbene after its oral administration to mice were studied. Mice were treated with 200 mg Pter/kg b.w. A group of 4-5 animals was sacrificed per each time point. Pter was dissolved in 2-hydroxypropyl-b-cyclodextrin, then suspended in 0.3% carboxymethylcellulose. Nondetectable=n.d. * P<0.1 comparing data obtained at 10-1440 min versus those found at 5 min.

[6] = Swiss albino, mouse, brain, 200 mg/kg b.w., read-out: Pter in Brain
[7] = Swiss albino, mouse, kidney, 200 mg/kg b.w., read-out: Pter in Kidney
[8] = Swiss albino, mouse, liver, 200 mg/kg b.w., read-out: Pter in Liver
[9] = Swiss albino, mouse, lung, 200 mg/kg b.w., read-out: Pter in Lung
[10] = Swiss albino, mouse, plasma, 200 mg/kg b.w., read-out: Pter in Plasma

COc1cc(/C=C/c2ccc(O)cc2)cc(OC)c1 [PT, 3,5-dimethoxy-4′-hydroxystilbene]
PT levels in circulating blood, 30 min vs 120 min [1]: higher 30 min after | survival [2]: around 100% | potency as antifungal agent relative to Resveratrol [3]: 60-100 times | effect on improving survival (60 days) among doses [4]: best effect on improving survival | concentration at 5 min [5, 6]: 2 ± 1 µM | concentration at 10 min [5, 6]: 6 ± 2 µM | concentration at 30 min [5, 6]: 10 ± 3 µM | concentration at 60 min [5, 6]: 24 ± 7 µM | concentration at 120 min [5, 6]: 14 ± 4 µM | concentration at 240 min [5, 6]: 8 ± 3 µM | concentration at 480 min [5, 6]: 3 ± 1 µM | concentration at 5 min [5, 7]: 1 ± 0.5 µM | concentration at 10 min [5, 7]: 4 ± 2 µM | concentration at 30 min [5, 7]: 6 ± 3 µM | concentration at 60 min [5, 7]: 10 ± 4 µM | concentration at 120 min [5, 7]: 8 ± 2 µM | concentration at 240 min [5, 7]: 2 ± 0.5 µM | concentration at 5 min [5, 8]: 3 ± 1 µM | concentration at 10 min [5, 8]: 8 ± 3 µM | concentration at 30 min [5, 8]: 11 ± 3 µM | concentration at 60 min [5, 8]: 17 ± 5 µM | concentration at 120 min [5, 8]: 12 ± 4 µM | concentration at 240 min [5, 8]: 7 ± 2 µM | concentration at 480 min [5, 8]: 1 ± 0.5 µM | concentration at 5 min [5, 9]: 7 ± 2 µM | concentration at 10 min [5, 9]: 15 ± 6 µM | concentration at 30 min [5, 9]: 23 ± 5 µM | concentration at 60 min [5, 9]: 35 ± 8 µM | concentration at 120 min [5, 9]: 21 ± 4 µM | concentration at 240 min [5, 9]: 12 ± 3 µM | concentration at 480 min [5, 9]: 2 ± 1 µM | concentration at 5 min [5, 10]: 5 ± 2 µM | concentration at 10 min [5, 10]: 18 ± 4 µM | concentration at 30 min [5, 10]: 55 ± 9 µM | concentration at 60 min [5, 10]: 98 ± 17 µM | concentration at 120 min [5, 10]: 46 ± 12 µM | concentration at 240 min [5, 10]: 21 ± 6 µM | concentration at 480 min [5, 10]: 14 ± 5 µM | concentration at 720 min ([5]; Swiss albino, mouse, plasma, 200 mg/kg b.w., 720 min): 1 ± 0.5 µM | time after administration at which Pterostilbene levels peak ([5]; all tissues studied): 60 min
